From patent US9079893B2, “Ureido-pyrazole derivatives for use in the treatment of respiratory syncitial virus (RSV) infection” (Respivert, Ltd., priority 2010, dated 2015) come the findings set out here.

The subject of assay [1] is RSV F-protein expression in NHBEC. Kind of assay: RSV F-protein expression in NHBEC infected with RSV A2 (in vitro RSV virus load). The assay is classed as cell-based, respiratory syncitial virus (RSV A2). The following applies: for NHBEC E-max (%): test conc μg/mL: 0.0016-0.2 (Examples 1, 59), 0.04-0.2 (fluticasone propionate), 10 (ribavirin); for IC50 / inhibition at 0.04 µg/mL: human respiratory syncytial virus, 96 h; for inhibition at 0.04 µg/mL: read-out: % inhibition (at 0.04 μg/mL). As for the experimental part: (§1) Normal human bronchial epithelial cells (NHBEC) grown in 96 well plates, were infected at a multiplicity of infection (MOI) of 0.001 with RSV A2 (Strain A2, HPA, Salisbury, UK;) in LHC8 Media: RPMI-1640 (50:50) containing 15 mM magnesium chloride, and incubated for 1 hr at 37° C. to promote adsorption. The cells were then washed with PBS to remove non-infected virus particle and incubated for 4 days in fresh media. As appropriate, cells were pre-incubated with the test compound or DMSO for 2 hr, and then added again after wash with PBS as shown above.
(§2) The cells were fixed with 4% formaldehyde in PBS solution for 20 min, washed with washing buffer: PBS including 0.5% BSA and 0.05% Tween-20) (WB) and incubated with blocking solution (5% condensed milk in PBS) for 1 hr. Cells were then washed with WB and incubated for 1 hr at RT with anti-RSV (2F7) F-fusion protein antibody (mouse monoclonal) (lot 798760, Cat. No. ab43812, Abcam). After washing, cells were incubated with an HRP-conjugated secondary antibody (lot 00053170, Cat. No. P0447, Dako) and then TMB substrate (substrate reagent pack (lot 269472, Cat. No. DY999, R&D Systems, Inc.) was added.
(§3) The reaction was stopped by the addition of 2NH2SO4 (50 μL) and the resultant signal was determined colorimetrically (OD: 450 nm with a reference wavelength of 655 nm) in a microplate reader (Varioskan® Flash, ThermoFisher Scientific). Cells were then washed and a 2.5% crystal violet solution (lot 8656, Cat. No. PL7000, Pro-Lab Diagnostics) was applied for 30 mins. After washing with WB, 100 μL of 1% SDS was added to each well, and plates were shaken lightly on the shaker for 1 hr prior to reading the absorbance at 595 nm. The measured OD450-655 readings were corrected to the cell number by dividing the OD450-655 by the OD595 readings. The percentage inhibition for each well was calculated and the IC50 value was calculated from the concentration-response curve generated by the serial dilutions of compound.

Assay [2] relates to RSV F-protein expression in Hep2 cells. Kind of assay: RSV F-protein expression in Hep2 cells infected with RSV. The assay is classed as cell-based, respiratory syncitial virus (RSV A2). The following applies: for Hep2 E-max (%): Hep2 cells, test conc μg/mL: 0.0016-0.2 (Examples 1, 59), 0.04-0.2 (fluticasone propionate), 10 (ribavirin); for IC50: human respiratory syncytial virus, HEp-2, 96 h. On the procedure:
as §1, §2, §3
(§4) HBECs obtained from patients with cystic fibrosis (CF-BEC) and Hep2 cells (human larynx epidermoid carcinoma cell line) were also used.

Assay [3] has as its system RSV F-protein expression in CF-BEC. As to the kind of experiment: RSV F-protein expression in CF-BEC (HBECs from patients with cystic fibrosis) infected with RSV. The assay is classed as cell-based, respiratory syncitial virus (RSV A2). The following applies: for CF-BEC E-max (%): test conc μg/mL: 0.0016-0.2 (Examples 1, 59), 0.04-0.2 (fluticasone propionate), 10 (ribavirin); for IC50: human respiratory syncytial virus, 96 h, read-out: CF-BEC IC50 (nM). On the procedure: as §1, §2, §3, §4

Assay [4] concerns RSV Memphis 37 induced IL-8 release. As to the kind of experiment: RSV Memphis 37 induced IL-8 release in air-liquid interface cultured primary nasal epithelial cells. The assay is classed as cell-based. As to conditions: primary 3D cultured nasal epithelial cells, RSV Memphis 37, FIG. 1. On the procedure: Primary nasal epithelial cells, cultured using an air-liquid interface, were purchased from Epithelix Sarl (Geneva, Switzerland). Fresh, warmed media (200 μL) containing either the test compound at the selected concentration or vehicle (DMSO; final concentration of 0.5%) was transferred to the apical chamber, and fresh, warmed media (700 μL) containing either the test compound at the selected concentration or vehicle (DMSO; final concentration of 0.5%) were transferred to the bottom chamber. After incubation for 2 hr, the media in upper well was removed carefully. The following day, fresh, warmed media (200 μL) containing either the test compound at the selected concentration or vehicle (DMSO; final concentration of 0.5%) was transferred to the apical chamber again, and after incubation for 2 hr, the media was removed. On the third day, cells were treated again for 2 hr, and the media was removed.
The cells in the apical well were infected with 50 μL of RSV Memphis 37 virus (Meridian) 2 (producing an MOI of approximately 0.1 at the estimated cell number of 1×10^6/well) and incubated for 1 hr. The apical media was then removed by aspiration and the wells were washed twice with warmed PBS. The plate was incubated at 37° C. […]
IL-8 concentrations were determined using a Duoset ELISA development kit (R&D Systems, Minneapolis, Minn.; FIG. 1)

Another assay relates to RSV Memphis 37. Kind of assay: RSV titre assay (CPE in Hep2) of air-liquid interface cultured primary nasal epithelial cells. The assay is classed as cell-based, respiratory syncitial virus (RSV Memphis 37). The following applies: primary 3D cultured nasal epithelial cells, RSV Memphis 37, log [TCID50], FIG. 2. As for the experimental part: Primary nasal epithelial cells, cultured using an air-liquid interface, were purchased from Epithelix Sarl (Geneva, Switzerland). Fresh, warmed media (200 μL) containing either the test compound at the selected concentration or vehicle (DMSO; final concentration of 0.5%) was transferred to the apical chamber, and fresh, warmed media (700 μL) containing either the test compound at the selected concentration or vehicle (DMSO; final concentration of 0.5%) were transferred to the bottom chamber. After incubation for 2 hr, the media in upper well was removed carefully. The following day, fresh, warmed media (200 μL) containing either the test compound at the selected concentration or vehicle (DMSO; final concentration of 0.5%) was transferred to the apical chamber again, and after incubation for 2 hr, the media was removed. On the third day, cells were treated again for 2 hr, and the media was removed. […]
The virus titre was estimated by CPE assay in Hep2 cells as follows: Supernatant (20 μL) was collected and 10-fold serial dilutions were prepared in 5%-FBS DMEM. […] The resultant cytopathic effects (CPE) were assessed by visual inspection 3 days after infection. The amount of virus required to infect 50% of Hep2 cells was calculated for each treatment and is reported as log [TCID50] […]

The subject of a further assay is human RSV A2. As to the kind of experiment: RSV virus load in mouse lung. The assay is classed as in vivo, Balb/c mice. The following applies: for Lung virus load (TCID50/g lung tissue ×10^3), day 3: 3 days post RSV infection; for Lung virus load (TCID50/g lung tissue ×10^3), day 5: 5 days post RSV infection; for Lung virus load (TCID50/g lung tissue ×10^3), day 7: 7 days post RSV infection; for inhibition of lung viral load: Day 5 post-infection (peak of virus titre), versus vehicle-dosed animals; for augmentation of viral load at Day 9: Day 9, when virus had been eliminated in vehicle-treated mice. On the procedure: Wild type, specific pathogen-free male Balb/c mice aged 8 weeks and weighing approximately 25 g were obtained from the Animal Resource Centre Pty. Ltd., Australia. On day zero, appropriate animal groups were anaesthetised with the inhalation anaesthetic methoxyfluorane and nasally inoculated with either virus diluent (low protein serum free VPSSM from Invitrogen) or 10^6 TCID50 units of human RSV A2 in a volume of 50 μL. […] Eleven to thirteen animals from each group were sacrificed on days 3, 5, 7 and 9 to enable lung viral load to be determined using a plaque assay (Table 5).

The mark [5] stands for this setting: intra-tracheal 20 μL of 0.1 mg/mL, mean ± SEM.

Each structure is given as a SMILES string. Where two headings read alike, the source gives them in different places.

By IC50 is commonly meant the concentration at which inhibition is half-maximal. As for `COCC(=O)Nc1cc(COc2ccc(NC(=O)Nc3cc(C(C)(C)C)nn3-c3ccc(C)cc3)c3ccccc23)ccn1` [Example 1, N-(4-((4-(3-(3-tert-Butyl-1-p-tolyl-1H-pyrazol-5-yl)ureido)naphthalen-1-yloxy)methyl)pyridin-2-yl)-2-methoxy acetamide], in assay [1], the “NHBEC E-max (%)” value was determined as 51%, inhibition was half-maximal at 40.8 nM (IC50) and the inhibition at 0.04 µg/mL was found to be 46.8%. Moreover, the IC50 in assay [1] (read-out: NHBEC IC50 (nM)) stood at 41 nM. For the same compound, the “Hep2 E-max (%)” value in assay [2] was found to be 24%. In assay [3], the “CF-BEC E-max (%)” value is 84% and the IC50 amounted to 69 nM. Also, in assay [4], the “inhibition on RSV-induced IL-8 production” value was “strong inhibition”. The “inhibition on RSV viral load” value with RSV Memphis 37 is reported as “strong inhibition”. In the assay with human RSV A2 (setting [5]), the “Lung virus load (TCID50/g lung tissue ×10^3), day 3” value is given as 66 ± 18 TCID50/g lung tissue ×10^3; the “Lung virus load (TCID50/g lung tissue ×10^3), day 5” value was 1,545 ± 918^ TCID50/g lung tissue ×10^3; the “Lung virus load (TCID50/g lung tissue ×10^3), day 7” value is on record as 7.1 ± 5.2 TCID50/g lung tissue ×10^3. Also, in the assay with human RSV A2, the “inhibition of lung viral load” value was 67% and the “augmentation of viral load at Day 9” value is reported as “did not augment viral load”.

Turning to `Cc1ccc(-n2nc(C(C)(C)C)cc2NC(=O)Nc2ccc(OCCc3ccnc(NC(N)=O)c3)c3ccccc23)cc1` [Example 40, 4-(2-(4-(3-(3-tert-Butyl-1-p-tolyl-1H-pyrazol-5-yl)ureido)naphthalen-1-yloxy)ethyl)-3-(pyridin-2-yl)urea], in assay [1], the half-inhibitory concentration (IC50) was determined as 103 nM and the inhibition at 0.04 µg/mL is 24.9%.

Turning to `COCC(=O)Nc1cc(Oc2ccc(NC(=O)Nc3cc(C(C)(C)C)nn3-c3ccc(C)cc3)c3ccccc23)ccn1` [Example 59, N-(4-(4-(3-(3-tert-Butyl-1-p-tolyl-1H-pyrazol-5-yl)ureido)naphthalen-1-yloxy)pyridin-2-yl)-2-methoxyacetamide], in assay [1], the “NHBEC E-max (%)” value is listed as 78% and the inhibition at 0.04 µg/mL turned out to be 67.5%. The “Hep2 E-max (%)” value in assay [2] was found to be 58%. For the same compound, in assay [2] (read-out: Hep2 IC50 (nM)), the IC50 was 289 nM. In assay [3], the “CF-BEC E-max (%)” value is reported as 87% and the 50% inhibitory concentration (IC50) was 58 nM. Also, in the assay with human RSV A2 (setting [5]), the “Lung virus load (TCID50/g lung tissue ×10^3), day 3” value was 81 ±29 TCID50/g lung tissue ×10^3; the “Lung virus load (TCID50/g lung tissue ×10^3), day 5” value is on record as 448 ± 268 TCID50/g lung tissue ×10^3; the “Lung virus load (TCID50/g lung tissue ×10^3), day 7” value is 2.4 ± 0.8 TCID50/g lung tissue ×10^3. Also, the “Lung virus load (TCID50/g lung tissue ×10^3), day 9” value in the assay with human RSV A2 (9 days post RSV infection, intra-tracheal 20 μL of 0.1 mg/mL, mean ± SEM) is recorded as 0.3 ± 0.1 TCID50/g lung tissue ×10^3. For the same compound, in the assay on human RSV A2, the “inhibition of lung viral load” value worked out at 90% and the “augmentation of viral load at Day 9” value was “did not augment viral load”.

`Cc1ccc(-n2nc(C(C)(C)C)cc2NC(=O)Nc2ccc(Oc3ccnc(NC(=O)N4CCCC4)c3)c3ccccc23)cc1` [Example 65, N-(4-(4-(3-(3-tert-Butyl-1-p-tolyl-1H-pyrazol-5-yl)ureido)naphthalen-1-yloxy)pyridin-2-yl)pyrrolidine-1-carboxamide]: the inhibition at 0.04 µg/mL in assay [1] was 56.5%.

On to `CNC(=O)Nc1cc(Oc2ccc(NC(=O)Nc3cc(C(C)(C)C)nn3-c3ccc(C)cc3)c3ccccc23)ccn1` [Example 88], for which the inhibition at 0.04 µg/mL in assay [1] amounted to 71.7%.

Turning to `CCC(=O)O[C@]1(C(=O)SCF)[C@H](C)C[C@H]2[C@@H]3C[C@H](F)C4=CC(=O)C=C[C@]4(C)[C@@]3(F)[C@@H](O)C[C@@]21C` [Fluticasone propionate, reference compound], the “NHBEC E-max (%)” value in assay [1] is −38%. The “CF-BEC E-max (%)” value in assay [3] came out at 10%.

Regarding `NC(=O)c1ncn([C@@H]2O[C@H](CO)[C@@H](O)[C@H]2O)n1` [Ribavirin, reference compound], the “NHBEC E-max (%)” value in assay [1] is reported as 78%. In addition, in assay [2], the “Hep2 E-max (%)” value is given as 93%. The IC50 in assay [2] (read-out: Hep2 IC50 (footnote a: μM)) was 9000 nM. Moreover, the “CF-BEC E-max (%)” value in assay [3] was determined as 53%.
